Measurements taken from ChEMBL document CHEMBL1777732 (Bioorg Med Chem Lett, 2011).
One block for each compound: values may come before it. Activity calls are given as the source filed them. The rule behind the calls is not given here.

Key:
[1] = target: T1, Metabotropic glutamate receptor 5 (Homo sapiens, UniProt P41594); experiment: Positive allosteric modulation of human mGluR5 expressed in HEK293 cells assessed as increase of L-glutamate-induced calcium mobilization by FLIPR assay; assay type: functional, cell-based
Target sequence in this assay (P41594 whole entry): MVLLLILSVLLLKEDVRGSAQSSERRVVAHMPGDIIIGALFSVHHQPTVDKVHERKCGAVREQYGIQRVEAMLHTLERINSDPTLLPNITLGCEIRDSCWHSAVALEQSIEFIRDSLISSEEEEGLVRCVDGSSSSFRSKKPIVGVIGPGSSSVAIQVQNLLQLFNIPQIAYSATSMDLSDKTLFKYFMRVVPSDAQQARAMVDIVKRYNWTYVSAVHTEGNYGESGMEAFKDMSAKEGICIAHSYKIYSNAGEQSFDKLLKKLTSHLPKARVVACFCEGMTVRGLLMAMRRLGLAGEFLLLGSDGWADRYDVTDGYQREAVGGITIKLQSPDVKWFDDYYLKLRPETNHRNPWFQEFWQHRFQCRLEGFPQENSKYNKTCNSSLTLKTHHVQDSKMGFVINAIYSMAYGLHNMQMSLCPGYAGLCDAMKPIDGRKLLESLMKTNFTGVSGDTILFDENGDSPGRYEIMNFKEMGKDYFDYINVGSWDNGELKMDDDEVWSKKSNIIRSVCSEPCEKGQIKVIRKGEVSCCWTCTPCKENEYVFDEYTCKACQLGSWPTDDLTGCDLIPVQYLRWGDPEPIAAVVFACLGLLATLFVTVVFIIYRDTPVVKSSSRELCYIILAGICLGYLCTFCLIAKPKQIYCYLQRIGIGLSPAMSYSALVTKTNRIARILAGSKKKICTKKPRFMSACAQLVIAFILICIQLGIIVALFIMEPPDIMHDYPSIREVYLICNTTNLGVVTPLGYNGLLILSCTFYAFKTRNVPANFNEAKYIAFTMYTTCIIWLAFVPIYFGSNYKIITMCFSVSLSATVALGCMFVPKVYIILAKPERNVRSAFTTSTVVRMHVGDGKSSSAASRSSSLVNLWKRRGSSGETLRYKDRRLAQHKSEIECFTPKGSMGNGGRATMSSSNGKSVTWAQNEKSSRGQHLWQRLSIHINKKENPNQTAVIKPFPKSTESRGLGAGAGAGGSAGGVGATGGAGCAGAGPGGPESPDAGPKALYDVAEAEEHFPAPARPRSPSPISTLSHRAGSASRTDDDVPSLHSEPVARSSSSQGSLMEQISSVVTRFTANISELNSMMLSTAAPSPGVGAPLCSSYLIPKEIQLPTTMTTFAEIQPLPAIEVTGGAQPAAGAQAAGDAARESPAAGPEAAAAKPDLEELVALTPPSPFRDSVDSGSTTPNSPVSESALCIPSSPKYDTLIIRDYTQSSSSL

[2] = target: T1, Metabotropic glutamate receptor 5; experiment: Positive allosteric modulation of human mGluR5 expressed in HEK293 cells assessed as increase of L-glutamate-induced calcium mobilization at 10 uM by FLIPR assay relative to L-glutamate; assay type: functional, cell-based
Target sequence in this assay (P41594 21-1212 limits assumed): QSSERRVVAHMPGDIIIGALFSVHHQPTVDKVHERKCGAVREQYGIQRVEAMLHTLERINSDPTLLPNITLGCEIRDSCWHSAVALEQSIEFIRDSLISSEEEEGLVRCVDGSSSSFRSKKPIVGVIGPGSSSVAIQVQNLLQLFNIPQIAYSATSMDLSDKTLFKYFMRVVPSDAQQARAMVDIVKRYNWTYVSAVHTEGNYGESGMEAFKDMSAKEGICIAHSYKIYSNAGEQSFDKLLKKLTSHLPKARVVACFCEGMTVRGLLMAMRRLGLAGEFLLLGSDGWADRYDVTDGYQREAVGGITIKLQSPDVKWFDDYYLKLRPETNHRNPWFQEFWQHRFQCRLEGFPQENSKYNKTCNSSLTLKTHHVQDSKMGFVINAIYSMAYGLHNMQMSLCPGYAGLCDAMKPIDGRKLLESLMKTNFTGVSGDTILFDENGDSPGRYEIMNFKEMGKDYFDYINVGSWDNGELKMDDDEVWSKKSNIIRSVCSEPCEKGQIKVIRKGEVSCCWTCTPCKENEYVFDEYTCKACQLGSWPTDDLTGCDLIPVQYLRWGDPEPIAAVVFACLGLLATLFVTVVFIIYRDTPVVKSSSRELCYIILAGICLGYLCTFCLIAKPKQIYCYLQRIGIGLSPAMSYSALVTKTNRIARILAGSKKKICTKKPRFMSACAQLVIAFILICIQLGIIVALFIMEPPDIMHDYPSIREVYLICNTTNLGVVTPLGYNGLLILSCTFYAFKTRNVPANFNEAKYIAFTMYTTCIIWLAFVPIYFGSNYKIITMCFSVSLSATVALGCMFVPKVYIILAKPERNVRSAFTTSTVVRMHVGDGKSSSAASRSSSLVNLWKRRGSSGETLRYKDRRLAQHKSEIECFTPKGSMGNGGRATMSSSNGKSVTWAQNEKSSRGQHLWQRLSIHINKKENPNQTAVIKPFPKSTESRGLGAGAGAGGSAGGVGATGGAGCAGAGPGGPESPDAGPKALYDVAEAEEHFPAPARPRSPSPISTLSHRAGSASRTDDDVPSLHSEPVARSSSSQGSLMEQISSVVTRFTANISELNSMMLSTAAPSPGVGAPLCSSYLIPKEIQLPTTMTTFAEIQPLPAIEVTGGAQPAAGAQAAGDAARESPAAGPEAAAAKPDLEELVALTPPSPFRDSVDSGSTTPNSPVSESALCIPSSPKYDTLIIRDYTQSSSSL

[3] = target: T1, Metabotropic glutamate receptor 5; experiment: Displacement of [3H]-MPEP from human mGluR5 expressed in HEK293 cells after 2 hrs; assay type: cell-based
Target sequence in this assay (P41594 whole entry): as the sequence (P41594 whole entry) above

[4] = target: T1, Metabotropic glutamate receptor 5; experiment: Negative allosteric modulation of human mGluR5 expressed in HEK293 cells assessed as inhibition of L-glutamate-induced calcium mobilization by FLIPR assay; assay type: functional, cell-based
Target sequence in this assay (P41594 whole entry): as above

[5] = target: T1, Metabotropic glutamate receptor 5; experiment: Negative allosteric modulation of human mGluR5 expressed in HEK293 cells assessed as inhibition of L-glutamate-induced calcium mobilization at 10 uM by FLIPR assay relative to control; assay type: functional, cell-based
Target sequence in this assay (P41594 21-1212 limits assumed): as the sequence (P41594 21-1212 limits assumed) above

IC50 ([4]; read-out: IC50): 293 nM | Imax [5]: 88% | Ki [3]: 3660 nM
Structure (SMILES): COc1cccc(C#Cc2ccc3c(n2)CCN(C)C3=O)c1

EC50 ([1]; read-out: EC50): 1010 nM | Emax [2]: 28% | Ki [3]: 20200 nM
Structure (SMILES): Cc1ccc(C#Cc2ccc3c(n2)CCN(C(C)C)C3=O)cc1

EC50 ([1]; read-out: EC50): 33 nM | Emax [2]: 87% | Ki [3]: 5230 nM
Structure (SMILES): O=C1c2ccc(C#Cc3cccc(Cl)c3)nc2CCN1C1CCCC1

IC50 ([4]; read-out: IC50): 4230 nM | Imax [5]: 61% | Ki [3]: 27100 nM
Structure (SMILES): CC(C)N1CCc2nc(C#Cc3ccc(Cl)cc3)ccc2C1=O

EC50 ([1]; read-out: EC50): 171 nM | Emax [2]: 47% | Ki [3]: 12000 nM
Structure (SMILES): O=C1c2ccc(C#Cc3cccc(Cl)c3)nc2CCN1C1CCCCC1

IC50 ([4]; read-out: IC50): 916 nM | Imax [5]: 70% | Ki [3]: 7900 nM
Structure (SMILES): CN1CCc2nc(C#Cc3ccccc3Cl)ccc2C1=O

IC50 ([4]; hek293): Not Active | EC50 ([1]; hek293): Not Active | Ki [3]: 19600 nM
Structure (SMILES): CC(C)N1CCc2nc(C#Cc3cccnc3)ccc2C1=O

IC50 ([4]; read-out: IC50): 810 nM | Imax [5]: 76% | Ki [3]: > 32000 nM
Structure (SMILES): Cc1ccccc1C#Cc1ccc2c(n1)CCN(C(C)C)C2=O

IC50 ([4]; read-out: IC50): 2.9 nM | Imax [5]: 86% | Ki [3]: 820 nM
Structure (SMILES): Cc1cccc(C#Cc2ccc3c(n2)CCN(C)C3=O)c1

IC50 ([4]; read-out: IC50): 4.8 nM | Imax [5]: 88% | Ki [3]: 510 nM
Structure (SMILES): Cc1cccc(C#Cc2ccc3c(n2)CCN(C(C)C)C3=O)c1

IC50 ([4]; read-out: IC50): 5.7 nM | Imax [5]: 86% | Ki [3]: 100 nM
Structure (SMILES): CC(C)N1CCc2nc(C#Cc3cccc(Cl)c3)ccc2C1=O

IC50 ([4]; read-out: IC50): 22 nM | Imax [5]: 84% | Ki [3]: 250 nM
Structure (SMILES): CN1CCc2nc(C#Cc3cccc(Cl)c3)ccc2C1=O

IC50 ([4]; read-out: IC50): 352 nM | Imax [5]: 73% | Ki [3]: 6150 nM
Structure (SMILES): CN1CCc2nc(C#Cc3ccc(Cl)cc3)ccc2C1=O

IC50 ([4]; read-out: IC50): 45 nM | Imax [5]: 78% | Ki [3]: 1930 nM
Structure (SMILES): CC(C)N1CCc2nc(C#Cc3cccs3)ccc2C1=O

IC50 ([4]; read-out: IC50): 706 nM | Imax [5]: 60% | Ki [3]: 1280 nM
Structure (SMILES): CC(C)N1CCc2nc(C#Cc3ccccc3)ccc2C1=O

IC50 ([4]; read-out: IC50): 111 nM | Imax [5]: 88% | Ki [3]: 2950 nM
Structure (SMILES): COc1cccc(C#Cc2ccc3c(n2)CCN(C(C)C)C3=O)c1

IC50 ([4]; read-out: IC50): 30 nM | Imax [5]: 58% | Ki [3]: 760 nM
Structure (SMILES): CN1CCc2nc(C#Cc3ccccc3)ccc2C1=O

IC50 ([4]; read-out: IC50): 27 nM | Imax [5]: 89% | Ki [3]: 2740 nM
Structure (SMILES): CC(C)N1CCc2nc(C#Cc3ccccn3)ccc2C1=O

IC50 ([4]; read-out: IC50): 2520 nM | Imax [5]: 61% | Ki [3]: 5680 nM
Structure (SMILES): CC(C)N1CCc2nc(C#Cc3ccccc3Cl)ccc2C1=O

The next lines start with the compound.

Structure (SMILES): O=C1c2ccc(C#Cc3ccccc3Cl)nc2CCN1C1CCCC1
EC50 ([1]; read-out: EC50): 393 nM | Emax [2]: 115% | Ki [3]: > 32000 nM

Structure (SMILES): CN1CCc2nc(C#Cc3cccnc3)ccc2C1=O
IC50 ([4]; hek293): Not Active | EC50 ([1]; hek293): Not Active | Ki [3]: 27400 nM

Structure (SMILES): Cc1ccc(C#Cc2ccc3c(n2)CCN(C2CCCCC2)C3=O)cc1
Ki [3]: 27200 nM

Structure (SMILES): O=C1c2ccc(C#Cc3ccccn3)nc2CCN1C1CCCCC1
IC50 ([4]; read-out: IC50): 518 nM | Imax [5]: 74% | Ki [3]: 2240 nM

Structure (SMILES): O=C1c2ccc(C#Cc3cccs3)nc2CCN1C1CCCC1
EC50 ([1]; read-out: EC50): 12 nM | Emax [2]: 103% | Ki [3]: 2840 nM

Structure (SMILES): Cc1cccc(C#Cc2ccc3c(n2)CCN(C2CCCC2)C3=O)c1
EC50 ([1]; read-out: EC50): 7.5 nM | Emax [2]: 97% | Ki [3]: 670 nM

Structure (SMILES): O=C1c2ccc(C#Cc3cccs3)nc2CCN1C1CCCCC1
EC50 ([1]; read-out: EC50): 13 nM | Emax [2]: 112% | Ki [3]: 720 nM

Structure (SMILES): CN1CCc2nc(C#Cc3ccccn3)ccc2C1=O
IC50 ([4]; read-out: IC50): 184 nM | Imax [5]: 92% | Ki [3]: 6240 nM

Structure (SMILES): O=C1c2ccc(C#Cc3ccc(Cl)cc3)nc2CCN1C1CCCCC1
IC50 ([4]; hek293): Not Active | EC50 ([1]; hek293): Not Active | Imax [5]: inactive | Emax [2]: inactive | Ki [3]: > 32000 nM

Structure (SMILES): O=C1c2ccc(C#Cc3cccnc3)nc2CCN1C1CCCC1
EC50 ([1]; read-out: EC50): 748 nM | Emax [2]: 68% | Ki [3]: > 32000 nM

Structure (SMILES): Cc1cccc(C#Cc2ccc3c(n2)CCN(C2CCCCC2)C3=O)c1
EC50 ([1]; read-out: EC50): 36 nM | Emax [2]: 54% | Ki [3]: 3210 nM

Structure (SMILES): CNC(=O)c1ccc(C#Cc2ccccc2)nc1
Ki [3]: 15000 nM

Structure (SMILES): O=C1c2ccc(C#Cc3ccc(Cl)cc3)nc2CCN1C1CCCC1
EC50 ([1]; read-out: EC50): 979 nM | Emax [2]: 98% | Ki [3]: > 32000 nM

Structure (SMILES): O=C1c2ccc(C#Cc3ccccc3)nc2CCN1C1CCCCC1
EC50 ([1]; read-out: EC50): 40 nM | Emax [2]: 122% | Ki [3]: 12400 nM

Structure (SMILES): COc1cccc(C#Cc2ccc3c(n2)CCN(C2CCCC2)C3=O)c1
EC50 ([1]; read-out: EC50): 462 nM | Emax [2]: 25% | Ki [3]: > 32000 nM

Structure (SMILES): Cc1ccc(C#Cc2ccc3c(n2)CCN(C2CCCC2)C3=O)cc1
EC50 ([1]; read-out: EC50): 4820 nM | Emax [2]: 97% | Ki [3]: > 32000 nM

Structure (SMILES): COc1cccc(C#Cc2ccc3c(n2)CCN(C2CCCCC2)C3=O)c1
Ki [3]: 23200 nM

Structure (SMILES): O=C1c2ccc(C#Cc3ccccc3)nc2CCN1C1CCCC1
EC50 ([1]; read-out: EC50): 5.9 nM | Emax [2]: 109% | Ki [3]: 890 nM

Structure (SMILES): Cc1ccccc1C#Cc1ccc2c(n1)CCN(C)C2=O
IC50 ([4]; read-out: IC50): 776 nM | Imax [5]: 80% | Ki [3]: > 32000 nM

Structure (SMILES): O=C(NC1CCCC1)c1ccc(C#Cc2ccccn2)nc1
IC50 ([4]; read-out: IC50): 227 nM | Imax [5]: 90% | Ki [3]: 7600 nM

Structure (SMILES): O=C1c2ccc(C#Cc3ccccn3)nc2CCN1C1CCCC1
IC50 ([4]; read-out: IC50): 199 nM | Imax [5]: 80% | Ki [3]: 1770 nM

Structure (SMILES): Cc1ccccc1C#Cc1ccc2c(n1)CCN(C1CCCC1)C2=O
EC50 ([1]; read-out: EC50): 239 nM | Emax [2]: 107% | Ki [3]: 18800 nM

Structure (SMILES): Cc1ccccc1C#Cc1ccc2c(n1)CCN(C1CCCCC1)C2=O
EC50 ([1]; read-out: EC50): 466 nM | Emax [2]: 62% | Ki [3]: > 32000 nM

Structure (SMILES): Cc1ccc(C#Cc2ccc3c(n2)CCN(C)C3=O)cc1
IC50 ([4]; read-out: IC50): 1400 nM | Imax [5]: 68% | Ki [3]: 7450 nM

Structure (SMILES): O=C1c2ccc(C#Cc3cccnc3)nc2CCN1C1CCCCC1
EC50 ([1]; read-out: EC50): 387 nM | Emax [2]: 73% | Ki [3]: 15600 nM

Structure (SMILES): CC(C)NC(=O)c1ccc(C#Cc2ccccc2)nc1
EC50 ([1]; read-out: EC50): 62 nM | Emax [2]: 61% | Ki [3]: 7100 nM

Structure (SMILES): O=C1c2ccc(C#Cc3ccccc3Cl)nc2CCN1C1CCCCC1
EC50 ([1]; read-out: EC50): 924 nM | Emax [2]: 68% | Ki [3]: > 32000 nM

Structure (SMILES): O=C(NC1CCCC1)c1ccc(C#Cc2cccnc2)nc1
EC50 ([1]; read-out: EC50): > 10000 nM | Emax [2]: 68% | Ki [3]: > 32000 nM

Structure (SMILES): O=C(NC1CCCC1)c1ccc(C#Cc2ccccc2)nc1
EC50 ([1]; read-out: EC50): 19 nM | Emax [2]: 106% | Ki [3]: 3300 nM

Structure (SMILES): CN1CCc2nc(C#Cc3cccs3)ccc2C1=O
IC50 ([4]; read-out: IC50): 451 nM | Imax [5]: 49% | Ki [3]: 2170 nM
